This note sets out measurements from PMC3890372 (Nature communications, 2013).

Assay [1] concerns the target T1, human Smo CRD (Smoothened) (Homo sapiens, UniProt Q99835).
T1 sequence (Q99835 65-177): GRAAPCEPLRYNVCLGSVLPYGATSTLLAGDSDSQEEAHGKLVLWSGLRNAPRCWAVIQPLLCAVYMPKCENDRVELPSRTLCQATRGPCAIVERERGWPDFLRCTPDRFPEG
Description: Bio-Layer Interferometry. The class given is binding. On the technique in general: In BLI a coated tip is dipped into the sample, and binding shifts an interference pattern.

For assay [2], the target named is T2, Drosophila Smo CRD (Smoothened) (Drosophila melanogaster, UniProt P91682).
T2 sequence (P91682 85-202): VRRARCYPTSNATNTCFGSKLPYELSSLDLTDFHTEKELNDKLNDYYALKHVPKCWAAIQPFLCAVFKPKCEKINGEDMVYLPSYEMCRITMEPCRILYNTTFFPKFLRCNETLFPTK
Kind of assay: Bio-Layer Interferometry. The format is binding.

For `CCCC1O[C@@H]2C[C@H]3[C@@H]4CCC5=CC(=O)C=C[C@]5(C)[C@H]4[C@@H](O)C[C@]3(C)[C@]2(C(=O)CO)O1` (some centres unmarked) [Bud, budesonide], the Kd was determined as 52 ± 16 µM in assay [1] and 120 ± 98 µM in assay [2].

The term Kd denotes the constant that tells how readily two partners part at equilibrium. Lower therefore signals tighter binding.
